Here are results for ten molecules from patent US9504747B2, “Lipids and lipid compositions for the delivery of active agents” (Novartis AG, priority 2013, dated 2016).

As a reminder, the pKa is the negative logarithm of the acid dissociation constant.

The nature of one series: pKa measurement of the cationic lipid (TNS fluorescence vs pH). It counts as physicochemical. Particulars: probe TNS (fluorescent probe), Table 4; pKa of the cationic lipid of formula (I). The method, then: Unless indicated otherwise, all pKa's referred to herein were measured at standard temperature and pressure. Also, unless otherwise indicated, all references to pKa are references to pKa measured using the following technique. 2 mM solution of lipid in ethanol was prepared by weighing the lipid and then dissolving it in ethanol. 0.3 mM solution of fluorescent probe TNS in ethanol:methanol 9:1 was prepared by first making 3 mM solution of TNS in methanol and then diluting to 0.3 mM with ethanol. An aqueous buffer containing 200 mM sodium phosphate dibasic and 100 mM citric acid was prepared. […] Using the Hamilton Microlab Star high throughput liquid handler and Hamilton run control software Software, 7.5 uL of probe/lipid mix were added to 242.5 uL of buffer in a 1 mL 96 well plate (model NUNC 260252, […] Nunc International). This was done with all twelve buffers. After mixing in 1 mL 96 well plate, 100 uL of each probe/lipid/buffer mixture was transferred to a 250 uL black with clear bottom 96 well plate (model COSTAR 3904, Corning). The fluorescence measurements are carried out on the SpectraMax M5 spectrophotometer using software SoftMax pro 5.2 and following parameters: After the measurement, the background fluorescence value of an empty well on the 96 well plate was subtracted from each probe/lipid/buffer mixture. The fluorescence intensity values were then normalized to the value at lowest pH. The normalized fluorescence intensity vs. pH chart was then plotted in the Microsoft Excel software. The twelve points were connected with a smooth line. The point on the line at which the normalized fluorescence intensity was equal to 0.5 was found. […] The pKa determined using this method is precise to about 0.1 pKa units.
Turning to `CCCCCCCC(=O)OCCCCCCCCCC(=O)OCc1cc(COC(=O)CCCCCCCCCOC(=O)CCCCCCC)cc(CN(C)C)c1` [Example 86], the pKa was determined as 5.84.
Regarding `CCCCCCCC(=O)OCCCCCCCC(=O)OCc1cc(COC(=O)CCCCCCCOC(=O)CCCCCCC)cc(CN(C)C)c1` [Example 87], the pKa stood at 6.07.
On the same count and under the same terms, the result for `CCCCCCCCCC(=O)OCCCCCC(=O)OCc1cc(COC(=O)CCCCCOC(=O)CCCCCCCCC)cc(CN(C)C)c1` [Example 88] reads 5.99; that for `CCCCCCCC(=O)OC[C@@H](CCOc1cc(CN(C)C)cc(OCC[C@@H](COC(=O)CCCCCCC)OC(=O)CCCCCCC)c1)OC(=O)CCCCCCC` [Example 92], 5.92; that for `CCCCCCCC(=O)OC[C@H](CCOc1cc(CN(C)C)cc(OCC[C@@H](COC(=O)CCCCCCC)OC(=O)CCCCCCC)c1)OC(=O)CCCCCCC` [Example 93], 6.
`CCCCCCCC(=O)OC[C@@H](CCOc1cc(CN(C)C)cc(OCC[C@H](COC(=O)CCCCCCC)OC(=O)CCCCCCC)c1)OC(=O)CCCCCCC` [Example 94] came in with a pKa of 6.16.
On the same count and under the same terms, the result for `CCCCCCCCCC(=O)OCCCC(=O)OCCCOc1cc(CN(C)C)cc(OCCCOC(=O)CCCOC(=O)CCCCCCCCC)c1` [Example 96] reads 5.71; that for `CCCCCCCC(=O)OCCCCCCCCCCOc1cc(CN(CC)CC)cc(OCCCCCCCCCCOC(=O)CCCCCCC)c1OCCCCCCCCCCOC(=O)CCCCCCC` [Example 100], 6.17.
For the molecule `CCCCCCCCCOC(=O)OCCCCCC(=O)OCc1cc(COC(=O)CCCCCOC(=O)OCCCCCCCCC)cc(CN(C)C)c1` [Example 106], the pKa came out at 6.04.
The same measure, in the same setting: to `CCCCCCCC(=O)OCC(CCCCOc1cc(CN(C)C)cc(OCCCCC(COC(=O)CCCCCCC)COC(=O)CCCCCCC)c1)COC(=O)CCCCCCC` [Example 110] belongs 5.66.

Another series is described as follows: Particle size of the lipid nanoparticle (dynamic light scattering, Malvern Zetasizer). The series is classed as physicochemical. Particulars: Table 4; FVII siRNA LNP; Chol/DSPC/stealth lipid PEG-DMG, molar ratio 45/44/9/2; Z-average. The text has this:
(§1) The lipid nanoparticles have a size of about 1 to about 2,500 nm, about 1 to about 1,500 nm, about 1 to about 1,000 nm, in a sub-embodiment about 50 to about 600 nm, in a sub-embodiment about 50 to about 400 nm, in a sub-embodiment about 50 to about 250 nm, and in a sub-embodiment about 50 to about 150 nm. Unless indicated otherwise, all sizes referred to herein are the average sizes (diameters) of the fully formed nanoparticle, as measured by dynamic light scattering on a Malvern Zetasizer. The nanoparticle sample is diluted in phosphate buffered saline (PBS) so that the count rate is approximately 200-400 kcts. The data is presented as a weighted average of the intensity measure. The lipid nanoparticles (LNPs) were formed by mixing equal volumes of lipids dissolved in alcohol with siRNA dissolved in a citrate buffer by an impinging jet process. […] The siRNA to total lipid ratio is approximately 0.05 (wt/wt). Where a LNP formulation contains four lipid components, the molar ratios correspond to the type of lipid as it appears in the first four columns of the table, in the order that they appear. The ratio of the lipids ranges from 20 to 70 mole percent for the cationic lipid with a target of 40-60, the mole percent of helper lipid ranges from 20 to 70 with a target of 30 to 50, the mole percent of neutral lipid ranges from 0-30, the mole percent of PEG lipid has a range from 1 to 6 with a target of 2 to 5. The concentration of siRNA solution ranges from 0.7 to 1.0 mg/mL with a target of 0.8 to 0.9 mg/mL in a sodium citrate: sodium chloride buffer pH 4-6, with a target of 4.5-5.5. The LNPs are formed by mixing equal volumes of lipid solution in ethanol with siRNA dissolved in a citrate buffer by an impinging jet process through a mixing device with ID ranging from 0.25 to 2.0 mm at a flow rate from 10 to 640 mL/min. The mixed LNP solution is held at room temperature for 0-24 hrs prior to a dilution step. […] The final product is sterile filtered and stored at 4° C. Unless indicated otherwise, all particle size measurements referred to in Tables 4 and 5 are the Z-average particle size of the fully formed nanoparticle, as measured by dynamic light scattering on a Malvern Zetasizer. The nanoparticle sample was diluted in phosphate buffered saline (PBS) so that the count rate is approximately 200-400 kcts.
As to `CCCCCCCC(=O)OCCCCCCCCCC(=O)OCc1cc(COC(=O)CCCCCCCCCOC(=O)CCCCCCC)cc(CN(C)C)c1` [Example 86], the “Size (nm)” value is reported as 128.7 nm.
On the same count and under the same terms, to `CCCCCCCC(=O)OCCCCCCCCCCOc1cc(CN(CC)CC)cc(OCCCCCCCCCCOC(=O)CCCCCCC)c1OCCCCCCCCCCOC(=O)CCCCCCC` [Example 100] belongs 106.4 nm.

The series is the same for the next values; noted with them: Table 4; FVII siRNA LNP; Chol/DSPC/stealth lipid S010, molar ratio 45/44/9/2; Z-average.
As to `CCCCCCCC(=O)OCCCCCCCCCC(=O)OCc1cc(COC(=O)CCCCCCCCCOC(=O)CCCCCCC)cc(CN(C)C)c1` [Example 86], the “Size (nm)” value is reported as 120.3 nm.
On the same count and under the same terms, to `CCCCCCCC(=O)OCCCCCCCC(=O)OCc1cc(COC(=O)CCCCCCCOC(=O)CCCCCCC)cc(CN(C)C)c1` [Example 87] belongs 159.2 nm; to `CCCCCCCCCC(=O)OCCCCCC(=O)OCc1cc(COC(=O)CCCCCOC(=O)CCCCCCCCC)cc(CN(C)C)c1` [Example 88], 152.4 nm.
`CCCCCCCC(=O)OC[C@@H](CCOc1cc(CN(C)C)cc(OCC[C@@H](COC(=O)CCCCCCC)OC(=O)CCCCCCC)c1)OC(=O)CCCCCCC` [Example 92]: the “Size (nm)” value turned out to be 117.3 nm.
On the same count and under the same terms, to `CCCCCCCC(=O)OC[C@H](CCOc1cc(CN(C)C)cc(OCC[C@@H](COC(=O)CCCCCCC)OC(=O)CCCCCCC)c1)OC(=O)CCCCCCC` [Example 93] belongs 121.5 nm; to `CCCCCCCC(=O)OC[C@@H](CCOc1cc(CN(C)C)cc(OCC[C@H](COC(=O)CCCCCCC)OC(=O)CCCCCCC)c1)OC(=O)CCCCCCC` [Example 94], 116.4 nm; to `CCCCCCCCCC(=O)OCCCC(=O)OCCCOc1cc(CN(C)C)cc(OCCCOC(=O)CCCOC(=O)CCCCCCCCC)c1` [Example 96], 197.3 nm.
On the same count and under the same terms, to `CCCCCCCC(=O)OCCCCCCCCCCOc1cc(CN(CC)CC)cc(OCCCCCCCCCCOC(=O)CCCCCCC)c1OCCCCCCCCCCOC(=O)CCCCCCC` [Example 100] belongs 105.9 nm.
With `CCCCCCCCCOC(=O)OCCCCCC(=O)OCc1cc(COC(=O)CCCCCOC(=O)OCCCCCCCCC)cc(CN(C)C)c1` [Example 106], the “Size (nm)” value was determined as 149.3 nm.
The same measure, in the same setting: to `CCCCCCCC(=O)OCC(CCCCOc1cc(CN(C)C)cc(OCCCCC(COC(=O)CCCCCCC)COC(=O)CCCCCCC)c1)COC(=O)CCCCCCC` [Example 110] belongs 183.3 nm.

The nature of another series: Polydispersity index (PDI) of the lipid nanoparticle (dynamic light scattering). It counts as physicochemical. Particulars: Table 4; FVII siRNA LNP; Chol/DSPC/stealth lipid PEG-DMG, 45/44/9/2.
Text: as §1, with “The” for “The lipid nanoparticles have a size of about 1 to about 2,500 nm, about 1 to about 1,500 nm, about 1 to about 1,000 nm, in a sub-embodiment about 50 to about 600 nm, in a sub-embodiment about 50 to about 400 nm, in a sub-embodiment about 50 to about 250 nm, and in a sub-embodiment about 50 to about 150 nm. Unless indicated otherwise, all sizes referred to herein are the average sizes (diameters) of the fully formed nanoparticle, as measured by dynamic light scattering on a Malvern Zetasizer. The nanoparticle sample is diluted in phosphate buffered saline (PBS) so that the count rate is approximately 200-400 kcts. The data is presented as a weighted average of the intensity measure. The”, “all PDIs” for “all particle size measurements”, “to herein” for “to in Tables 4 and 5”, “the PDI” for “the Z-average particle size”, “rate was” for “rate is”, “kcts. The data is presented in Tables 4 and 5 as a weighted average of the intensity measure.” for “kcts.”
As for `CCCCCCCC(=O)OCCCCCCCCCC(=O)OCc1cc(COC(=O)CCCCCCCCCOC(=O)CCCCCCC)cc(CN(C)C)c1` [Example 86], the PDI amounted to 0.05.
Same read-out and setting: the result for `CCCCCCCC(=O)OCCCCCCCCCCOc1cc(CN(CC)CC)cc(OCCCCCCCCCCOC(=O)CCCCCCC)c1OCCCCCCCCCCOC(=O)CCCCCCC` [Example 100] reads 0.07.

The same series, now with this note: Table 4; FVII siRNA LNP; Chol/DSPC/stealth lipid S010, 45/44/9/2.
In the case of `CCCCCCCC(=O)OCCCCCCCCCC(=O)OCc1cc(COC(=O)CCCCCCCCCOC(=O)CCCCCCC)cc(CN(C)C)c1` [Example 86], the PDI is given as 0.058.
Same read-out and setting: to `CCCCCCCC(=O)OCCCCCCCC(=O)OCc1cc(COC(=O)CCCCCCCOC(=O)CCCCCCC)cc(CN(C)C)c1` [Example 87] belongs 0.089.
The molecule `CCCCCCCCCC(=O)OCCCCCC(=O)OCc1cc(COC(=O)CCCCCOC(=O)CCCCCCCCC)cc(CN(C)C)c1` [Example 88] came in with a PDI of 0.046.
On the same count and under the same terms, to `CCCCCCCC(=O)OC[C@@H](CCOc1cc(CN(C)C)cc(OCC[C@@H](COC(=O)CCCCCCC)OC(=O)CCCCCCC)c1)OC(=O)CCCCCCC` [Example 92] belongs 0.065; to `CCCCCCCC(=O)OC[C@H](CCOc1cc(CN(C)C)cc(OCC[C@@H](COC(=O)CCCCCCC)OC(=O)CCCCCCC)c1)OC(=O)CCCCCCC` [Example 93], 0.071; to `CCCCCCCC(=O)OC[C@@H](CCOc1cc(CN(C)C)cc(OCC[C@H](COC(=O)CCCCCCC)OC(=O)CCCCCCC)c1)OC(=O)CCCCCCC` [Example 94], 0.073.
Regarding `CCCCCCCCCC(=O)OCCCC(=O)OCCCOc1cc(CN(C)C)cc(OCCCOC(=O)CCCOC(=O)CCCCCCCCC)c1` [Example 96], the PDI amounted to 0.14.
Still for that read-out and setting: to `CCCCCCCC(=O)OCCCCCCCCCCOc1cc(CN(CC)CC)cc(OCCCCCCCCCCOC(=O)CCCCCCC)c1OCCCCCCCCCCOC(=O)CCCCCCC` [Example 100] belongs 0.121; to `CCCCCCCCCOC(=O)OCCCCCC(=O)OCc1cc(COC(=O)CCCCCOC(=O)OCCCCCCCCC)cc(CN(C)C)c1` [Example 106], 0.083.
Same read-out and setting: the result for `CCCCCCCC(=O)OCC(CCCCOc1cc(CN(C)C)cc(OCCCCC(COC(=O)CCCCCCC)COC(=O)CCCCCCC)c1)COC(=O)CCCCCCC` [Example 110] reads 0.071.
